Laboratory results published in US20240415914A1, “Water Dispersible Cannabinoid Compositions” (priority 2021, published 2024).

Test: Stability of cannabinoid and Vitamin E components of Beverage 1 (AB White) stored at 8° C. and 21-25° C., LCMSMS over 570 days
Type: physicochemical
Conditions: for Stability in AB White, 8° C. (content by LCMSMS): beverage stored at 8° C.; for Stability in AB White, 21-25° C. (content by LCMSMS): beverage stored at 21-25° C.
Protocol: The LCMSMS was calibrated for 0-1000 ng/ml cannabinoids with the same resin material used in the preparation of the concentrates. At each time period, 100 ml of beverage was diluted with 10 ml of methanol and injected into the LCMSMS for analysis.

## C=C(C)[C@@H]1CCC(C)=C[C@H]1c1c(O)cc(CCCCC)c(C(=O)O)c1O [CBDA, cannabidiolic acid]
Day 0
  Stability in AB White, 8° C. (content by LCMSMS): 1.75 µg/mL
  Stability in AB White, 21-25° C. (content by LCMSMS): 1.75 µg/mL
Day 1
  Stability in AB White, 8° C. (content by LCMSMS): 1.72 µg/mL
  Stability in AB White, 21-25° C. (content by LCMSMS): 1.76 µg/mL
Day 2
  Stability in AB White, 8° C. (content by LCMSMS): 1.76 µg/mL
  Stability in AB White, 21-25° C. (content by LCMSMS): 1.70 µg/mL
Day 3
  Stability in AB White, 8° C. (content by LCMSMS): 1.76 µg/mL
  Stability in AB White, 21-25° C. (content by LCMSMS): 1.71 µg/mL
Day 5
  Stability in AB White, 8° C. (content by LCMSMS): 1.71 µg/mL
  Stability in AB White, 21-25° C. (content by LCMSMS): 1.69 µg/mL
Day 8
  Stability in AB White, 8° C. (content by LCMSMS): 1.75 µg/mL
  Stability in AB White, 21-25° C. (content by LCMSMS): 1.77 µg/mL
Day 9
  Stability in AB White, 8° C. (content by LCMSMS): 1.73 µg/mL
  Stability in AB White, 21-25° C. (content by LCMSMS): 1.74 µg/mL
Day 10
  Stability in AB White, 8° C. (content by LCMSMS): 1.76 µg/mL
  Stability in AB White, 21-25° C. (content by LCMSMS): 1.73 µg/mL
Day 11
  Stability in AB White, 8° C. (content by LCMSMS): 1.70 µg/mL
  Stability in AB White, 21-25° C. (content by LCMSMS): 1.76 µg/mL
Day 12
  Stability in AB White, 8° C. (content by LCMSMS): 1.71 µg/mL
  Stability in AB White, 21-25° C. (content by LCMSMS): 1.74 µg/mL
Day 15
  Stability in AB White, 8° C. (content by LCMSMS): 1.74 µg/mL
  Stability in AB White, 21-25° C. (content by LCMSMS): 1.69 µg/mL
Day 16
  Stability in AB White, 8° C. (content by LCMSMS): 1.73 µg/mL
  Stability in AB White, 21-25° C. (content by LCMSMS): 1.75 µg/mL
Day 17
  Stability in AB White, 8° C. (content by LCMSMS): 1.73 µg/mL
  Stability in AB White, 21-25° C. (content by LCMSMS): 1.72 µg/mL
Day 18
  Stability in AB White, 8° C. (content by LCMSMS): 1.76 µg/mL
  Stability in AB White, 21-25° C. (content by LCMSMS): 1.75 µg/mL
Day 19
  Stability in AB White, 8° C. (content by LCMSMS): 1.74 µg/mL
  Stability in AB White, 21-25° C. (content by LCMSMS): 1.70 µg/mL
Day 22
  Stability in AB White, 8° C. (content by LCMSMS): 1.70 µg/mL
  Stability in AB White, 21-25° C. (content by LCMSMS): 1.70 µg/mL
Day 23
  Stability in AB White, 8° C. (content by LCMSMS): 1.76 µg/mL
  Stability in AB White, 21-25° C. (content by LCMSMS): 1.73 µg/mL
Day 24
  Stability in AB White, 8° C. (content by LCMSMS): 1.72 µg/mL
  Stability in AB White, 21-25° C. (content by LCMSMS): 1.70 µg/mL
Day 25
  Stability in AB White, 8° C. (content by LCMSMS): 1.75 µg/mL
  Stability in AB White, 21-25° C. (content by LCMSMS): 1.73 µg/mL
Day 26
  Stability in AB White, 8° C. (content by LCMSMS): 1.75 µg/mL
  Stability in AB White, 21-25° C. (content by LCMSMS): 1.75 µg/mL
Day 29
  Stability in AB White, 8° C. (content by LCMSMS): 1.75 µg/mL
  Stability in AB White, 21-25° C. (content by LCMSMS): 1.76 µg/mL
Day 30
  Stability in AB White, 8° C. (content by LCMSMS): 1.76 µg/mL
  Stability in AB White, 21-25° C. (content by LCMSMS): 1.71 µg/mL
Day 60
  Stability in AB White, 8° C. (content by LCMSMS): 1.70 µg/mL
  Stability in AB White, 21-25° C. (content by LCMSMS): 1.68 µg/mL
Day 90
  Stability in AB White, 8° C. (content by LCMSMS): 1.70 µg/mL
  Stability in AB White, 21-25° C. (content by LCMSMS): 1.67 µg/mL
Day 120
  Stability in AB White, 8° C. (content by LCMSMS): 1.67 µg/mL
  Stability in AB White, 21-25° C. (content by LCMSMS): 1.66 µg/mL
Day 150
  Stability in AB White, 8° C. (content by LCMSMS): 1.71 µg/mL
  Stability in AB White, 21-25° C. (content by LCMSMS): 1.64 µg/mL
Day 180
  Stability in AB White, 8° C. (content by LCMSMS): 1.75 µg/mL
  Stability in AB White, 21-25° C. (content by LCMSMS): 1.69 µg/mL
Day 210
  Stability in AB White, 8° C. (content by LCMSMS): 1.68 µg/mL
  Stability in AB White, 21-25° C. (content by LCMSMS): 1.73 µg/mL
Day 240
  Stability in AB White, 8° C. (content by LCMSMS): 1.70 µg/mL
  Stability in AB White, 21-25° C. (content by LCMSMS): 1.73 µg/mL
Day 270
  Stability in AB White, 8° C. (content by LCMSMS): 1.70 µg/mL
  Stability in AB White, 21-25° C. (content by LCMSMS): 1.71 µg/mL
Day 300
  Stability in AB White, 8° C. (content by LCMSMS): 1.69 µg/mL
  Stability in AB White, 21-25° C. (content by LCMSMS): 1.73 µg/mL
Day 330
  Stability in AB White, 8° C. (content by LCMSMS): 1.70 µg/mL
  Stability in AB White, 21-25° C. (content by LCMSMS): 1.72 µg/mL
Day 360
  Stability in AB White, 8° C. (content by LCMSMS): 1.70 µg/mL
  Stability in AB White, 21-25° C. (content by LCMSMS): 1.69 µg/mL
Day 390
  Stability in AB White, 8° C. (content by LCMSMS): 1.70 µg/mL
  Stability in AB White, 21-25° C. (content by LCMSMS): 1.67 µg/mL
Day 420
  Stability in AB White, 8° C. (content by LCMSMS): 1.67 µg/mL
  Stability in AB White, 21-25° C. (content by LCMSMS): 1.64 µg/mL
Day 450
  Stability in AB White, 8° C. (content by LCMSMS): 1.68 µg/mL
  Stability in AB White, 21-25° C. (content by LCMSMS): 1.70 µg/mL
Day 480
  Stability in AB White, 8° C. (content by LCMSMS): 1.66 µg/mL
  Stability in AB White, 21-25° C. (content by LCMSMS): 1.63 µg/mL
Day 510
  Stability in AB White, 8° C. (content by LCMSMS): 1.61 µg/mL
  Stability in AB White, 21-25° C. (content by LCMSMS): 1.66 µg/mL
Day 540
  Stability in AB White, 8° C. (content by LCMSMS): 1.61 µg/mL
  Stability in AB White, 21-25° C. (content by LCMSMS): 1.63 µg/mL
Day 570
  Stability in AB White, 8° C. (content by LCMSMS): 1.60 µg/mL
  Stability in AB White, 21-25° C. (content by LCMSMS): 1.61 µg/mL
